Test results: patent US20120122860A1, “SOLID FORMS OF SULFONAMIDES AND AMINO ACIDS” (Plexxikon, Inc., priority 2009, published 2012)

Experiments:
A-Raf = target: T1, A-Raf (Homo sapiens, UniProt P10398); experiment: Kinase activity assay, A-Raf
T1 sequence (P10398 1-606): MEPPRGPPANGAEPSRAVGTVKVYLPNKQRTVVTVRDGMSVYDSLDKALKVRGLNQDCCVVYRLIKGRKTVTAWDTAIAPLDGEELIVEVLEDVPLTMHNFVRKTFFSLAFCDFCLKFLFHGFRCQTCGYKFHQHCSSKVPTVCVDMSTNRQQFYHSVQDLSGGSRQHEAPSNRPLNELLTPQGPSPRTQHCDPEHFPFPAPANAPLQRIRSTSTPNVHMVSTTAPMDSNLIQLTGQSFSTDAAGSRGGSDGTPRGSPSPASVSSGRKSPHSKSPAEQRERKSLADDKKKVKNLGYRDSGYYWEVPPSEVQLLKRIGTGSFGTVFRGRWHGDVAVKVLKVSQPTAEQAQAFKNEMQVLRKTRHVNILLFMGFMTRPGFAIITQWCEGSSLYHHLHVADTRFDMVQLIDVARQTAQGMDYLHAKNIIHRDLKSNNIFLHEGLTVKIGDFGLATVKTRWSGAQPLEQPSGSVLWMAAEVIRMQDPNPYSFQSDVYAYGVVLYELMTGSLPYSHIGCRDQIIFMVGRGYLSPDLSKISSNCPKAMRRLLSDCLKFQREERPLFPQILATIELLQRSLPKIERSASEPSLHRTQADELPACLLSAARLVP

B-Raf = B-Raf (Homo sapiens, UniProt P15056); experiment: Kinase activity assay, B-Raf; assay type: biochemical; details: read-out: activity toward kinase B-Raf, IC50
Kit = Kit (Homo sapiens, UniProt P10721); experiment: Kinase activity assay, Kit
C-Raf = C-Raf (Homo sapiens, UniProt P04049); experiment: Kinase activity assay, C-Raf
Kdr = Kdr (Homo sapiens, UniProt P35968); experiment: Kinase activity assay, Kdr
Src = Src (Homo sapiens, UniProt P12931); experiment: Kinase activity assay, Src
B-Raf V600E = B-Raf V600E (Homo sapiens, UniProt P15056, V600E); experiment: Kinase activity assay, B-Raf V600E; assay type: biochemical; details: read-out: activity toward kinase B-Raf V600E, IC50

Measured: IC50

Chain of B-Raf V600E (P15056 whole entry V600E): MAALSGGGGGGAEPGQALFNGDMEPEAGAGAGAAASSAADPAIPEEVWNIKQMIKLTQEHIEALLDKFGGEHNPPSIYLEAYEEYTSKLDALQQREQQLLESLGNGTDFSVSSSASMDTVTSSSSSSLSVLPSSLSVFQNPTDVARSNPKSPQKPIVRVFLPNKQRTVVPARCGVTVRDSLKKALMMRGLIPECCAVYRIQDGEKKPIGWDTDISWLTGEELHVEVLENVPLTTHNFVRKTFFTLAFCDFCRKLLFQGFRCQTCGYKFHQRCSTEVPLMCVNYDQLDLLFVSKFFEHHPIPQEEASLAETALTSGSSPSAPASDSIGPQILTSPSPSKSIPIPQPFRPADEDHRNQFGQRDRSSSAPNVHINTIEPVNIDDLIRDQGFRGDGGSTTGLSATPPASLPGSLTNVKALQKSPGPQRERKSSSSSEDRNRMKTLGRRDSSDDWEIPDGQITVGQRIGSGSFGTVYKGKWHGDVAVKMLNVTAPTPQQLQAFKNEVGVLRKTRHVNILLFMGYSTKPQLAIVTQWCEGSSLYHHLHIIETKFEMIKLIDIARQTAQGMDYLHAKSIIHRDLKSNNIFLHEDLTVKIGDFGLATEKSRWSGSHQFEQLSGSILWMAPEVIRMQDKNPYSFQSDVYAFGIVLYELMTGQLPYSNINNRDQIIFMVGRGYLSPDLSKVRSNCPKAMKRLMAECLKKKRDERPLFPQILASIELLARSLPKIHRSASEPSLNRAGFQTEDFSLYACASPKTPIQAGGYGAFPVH
Chain of Src (P12931 whole entry): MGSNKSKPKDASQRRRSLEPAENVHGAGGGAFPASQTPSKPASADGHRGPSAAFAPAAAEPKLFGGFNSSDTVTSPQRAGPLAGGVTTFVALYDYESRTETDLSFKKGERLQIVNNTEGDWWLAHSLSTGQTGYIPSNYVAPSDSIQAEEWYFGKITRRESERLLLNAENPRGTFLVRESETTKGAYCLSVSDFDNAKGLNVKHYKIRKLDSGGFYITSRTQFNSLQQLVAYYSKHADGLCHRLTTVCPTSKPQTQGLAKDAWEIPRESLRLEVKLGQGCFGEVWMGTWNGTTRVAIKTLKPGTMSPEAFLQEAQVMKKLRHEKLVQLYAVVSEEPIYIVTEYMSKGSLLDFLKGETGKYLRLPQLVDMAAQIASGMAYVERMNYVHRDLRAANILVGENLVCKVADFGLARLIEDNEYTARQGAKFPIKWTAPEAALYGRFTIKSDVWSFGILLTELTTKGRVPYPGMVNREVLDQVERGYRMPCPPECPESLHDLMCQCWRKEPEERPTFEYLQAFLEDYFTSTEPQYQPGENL
Chain of C-Raf (P04049 whole entry): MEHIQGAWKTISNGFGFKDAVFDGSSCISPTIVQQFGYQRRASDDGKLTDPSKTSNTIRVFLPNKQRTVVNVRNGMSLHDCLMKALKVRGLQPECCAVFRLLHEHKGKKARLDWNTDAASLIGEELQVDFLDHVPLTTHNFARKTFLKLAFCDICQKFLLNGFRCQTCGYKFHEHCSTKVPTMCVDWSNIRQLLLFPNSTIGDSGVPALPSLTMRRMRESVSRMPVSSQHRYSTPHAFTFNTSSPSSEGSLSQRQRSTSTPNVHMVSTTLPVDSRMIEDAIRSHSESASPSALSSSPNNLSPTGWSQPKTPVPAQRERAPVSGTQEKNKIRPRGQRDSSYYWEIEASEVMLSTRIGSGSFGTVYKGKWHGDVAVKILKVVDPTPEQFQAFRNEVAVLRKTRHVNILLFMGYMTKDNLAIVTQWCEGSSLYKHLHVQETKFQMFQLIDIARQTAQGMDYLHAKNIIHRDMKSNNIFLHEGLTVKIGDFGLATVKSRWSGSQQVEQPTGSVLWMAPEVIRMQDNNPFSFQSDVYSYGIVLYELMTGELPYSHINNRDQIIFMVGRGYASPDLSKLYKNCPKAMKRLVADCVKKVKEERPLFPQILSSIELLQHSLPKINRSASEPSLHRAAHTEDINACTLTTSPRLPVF
Chain of Kit (P10721 26-976): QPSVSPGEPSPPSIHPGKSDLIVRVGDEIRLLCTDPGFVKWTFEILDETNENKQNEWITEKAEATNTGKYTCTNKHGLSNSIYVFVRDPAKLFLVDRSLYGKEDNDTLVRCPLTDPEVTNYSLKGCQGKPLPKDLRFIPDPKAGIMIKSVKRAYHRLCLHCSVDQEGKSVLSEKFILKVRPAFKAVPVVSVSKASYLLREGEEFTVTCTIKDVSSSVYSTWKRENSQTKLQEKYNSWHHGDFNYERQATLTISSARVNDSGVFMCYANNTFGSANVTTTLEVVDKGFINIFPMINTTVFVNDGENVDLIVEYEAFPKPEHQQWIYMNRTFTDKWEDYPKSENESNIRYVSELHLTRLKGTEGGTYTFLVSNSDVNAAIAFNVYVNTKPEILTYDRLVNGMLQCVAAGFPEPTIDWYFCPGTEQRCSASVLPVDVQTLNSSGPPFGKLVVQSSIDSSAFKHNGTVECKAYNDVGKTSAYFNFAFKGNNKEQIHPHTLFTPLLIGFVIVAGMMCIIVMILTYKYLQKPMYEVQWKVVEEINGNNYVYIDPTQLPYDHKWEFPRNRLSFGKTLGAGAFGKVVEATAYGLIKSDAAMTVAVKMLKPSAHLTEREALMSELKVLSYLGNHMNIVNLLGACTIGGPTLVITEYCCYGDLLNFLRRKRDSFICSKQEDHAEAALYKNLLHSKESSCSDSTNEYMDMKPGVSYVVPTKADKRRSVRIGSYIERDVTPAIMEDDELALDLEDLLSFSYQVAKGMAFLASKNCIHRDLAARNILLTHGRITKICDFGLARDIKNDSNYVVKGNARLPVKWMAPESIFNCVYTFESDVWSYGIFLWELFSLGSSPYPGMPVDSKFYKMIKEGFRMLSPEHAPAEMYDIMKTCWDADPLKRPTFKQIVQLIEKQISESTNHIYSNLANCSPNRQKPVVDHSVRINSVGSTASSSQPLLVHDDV
Chain of Kdr (P35968 20-1356): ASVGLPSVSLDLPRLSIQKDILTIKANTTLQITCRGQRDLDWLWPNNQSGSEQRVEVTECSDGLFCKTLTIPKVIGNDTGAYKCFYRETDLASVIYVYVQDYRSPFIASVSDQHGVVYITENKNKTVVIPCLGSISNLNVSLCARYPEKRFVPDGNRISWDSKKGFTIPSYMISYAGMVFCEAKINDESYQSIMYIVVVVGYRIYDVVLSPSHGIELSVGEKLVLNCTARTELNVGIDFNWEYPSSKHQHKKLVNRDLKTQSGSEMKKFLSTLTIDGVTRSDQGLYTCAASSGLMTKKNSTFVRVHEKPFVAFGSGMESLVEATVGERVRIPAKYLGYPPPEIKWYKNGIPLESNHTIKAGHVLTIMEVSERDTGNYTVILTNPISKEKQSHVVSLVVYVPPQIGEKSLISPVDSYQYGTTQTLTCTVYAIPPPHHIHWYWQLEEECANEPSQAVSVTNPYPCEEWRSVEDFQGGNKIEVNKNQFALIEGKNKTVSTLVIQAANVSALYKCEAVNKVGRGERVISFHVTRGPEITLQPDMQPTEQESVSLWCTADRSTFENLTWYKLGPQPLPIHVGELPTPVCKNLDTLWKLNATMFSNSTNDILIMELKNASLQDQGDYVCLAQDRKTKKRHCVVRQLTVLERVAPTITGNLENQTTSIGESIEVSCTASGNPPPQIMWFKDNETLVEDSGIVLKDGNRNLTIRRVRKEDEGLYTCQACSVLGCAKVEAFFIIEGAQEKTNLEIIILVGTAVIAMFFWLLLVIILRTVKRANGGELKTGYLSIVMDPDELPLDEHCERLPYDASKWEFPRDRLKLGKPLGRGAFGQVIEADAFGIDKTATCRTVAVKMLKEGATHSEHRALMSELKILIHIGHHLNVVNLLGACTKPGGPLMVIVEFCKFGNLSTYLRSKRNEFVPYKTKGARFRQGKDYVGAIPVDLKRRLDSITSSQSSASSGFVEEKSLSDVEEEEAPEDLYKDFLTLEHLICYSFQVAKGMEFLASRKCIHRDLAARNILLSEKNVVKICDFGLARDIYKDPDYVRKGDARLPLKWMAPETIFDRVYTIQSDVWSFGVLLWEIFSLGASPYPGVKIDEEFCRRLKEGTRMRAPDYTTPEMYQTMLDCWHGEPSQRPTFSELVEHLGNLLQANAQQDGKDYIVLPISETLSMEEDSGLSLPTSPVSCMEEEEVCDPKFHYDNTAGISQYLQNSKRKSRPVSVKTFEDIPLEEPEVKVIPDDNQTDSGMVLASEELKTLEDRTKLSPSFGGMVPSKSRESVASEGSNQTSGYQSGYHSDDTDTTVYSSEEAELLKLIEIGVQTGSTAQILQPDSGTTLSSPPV
Chain of B-Raf (P15056 whole entry): as the sequence (P15056 whole entry V600E) above, with E600V counted along it

N#Cc1ccnc2[nH]cc(C(=O)c3c(F)ccc(NS(=O)(=O)c4c(F)cccc4F)c3F)c12 [P-2037, N-[3-(4-Cyano-1H-pyrrolo[2,3-b]pyridine-3-carbonyl)-2,4-difluoro-phenyl]-2,6-difluoro-benzenesulfonamide]
≤ 10 µM: all assays above

N#Cc1ccnc2[nH]cc(C(=O)c3c(F)ccc(NS(=O)(=O)c4ccc(F)cc4F)c3F)c12 [P-2038, N-[3-(4-Cyano-1H-pyrrolo[2,3-b]pyridine-3-carbonyl)-2,4-difluoro-phenyl]-2,4-difluoro-benzenesulfonamide]
≤ 10 µM: all assays above

N#Cc1ccnc2[nH]cc(C(=O)c3c(F)ccc(NS(=O)(=O)c4cccc(F)c4)c3F)c12 [P-2039, N-[3-(4-Cyano-1H-pyrrolo[2,3-b]pyridine-3-carbonyl)-2,4-difluoro-phenyl]-3-fluoro-benzenesulfonamide]
not listed: Kdr
≤ 10 µM: all other assays above

CCCS(=O)(=O)Nc1ccc(F)c(C(=O)c2c[nH]c3nccc(C#N)c23)c1F [P-2209, Propane-1-sulfonic acid [3-(4-cyano-1H-pyrrolo[2,3-b]pyridine-3-carbonyl)-2,4-difluoro-phenyl]-amide]
≤ 10 µM: all assays above

CCCS(=O)(=O)Nc1ccc(F)c(C(=O)c2c[nH]c3ncc(C(=O)NOC)cc23)c1F [P-2238, 3-[2,6-Difluoro-3-(propane-1-sulfonylamino)-benzoyl]-1H-pyrrolo[2,3-b]pyridine-5-carboxylic acid methoxy-amide]
≤ 10 µM: all assays above

COc1cnc2[nH]cc(C(=O)c3c(F)ccc(NS(=O)(=O)CC(C)C)c3F)c2c1 [P-2303, 2-Methyl-propane-1-sulfonic acid [2,4-difluoro-3-(5-methoxy-1H-pyrrolo[2,3-b]pyridine-3-carbonyl)-phenyl]-amide]
≤ 10 µM: all assays above

Cc1cnc2[nH]cc(C(=O)c3c(F)ccc(NS(=O)(=O)CC(C)C)c3F)c2c1 [P-2305, 2-Methyl-propane-1-sulfonic acid [2,4-difluoro-3-(5-methyl-1H-pyrrolo[2,3-b]pyridine-3-carbonyl)-phenyl]-amide]
≤ 10 µM: all assays above

CC(C)CS(=O)(=O)Nc1ccc(F)c(C(=O)c2c[nH]c3nccc(Cl)c23)c1F [P-2318, 2-Methyl-propane-1-sulfonic acid [3-(4-chloro-1H-pyrrolo[2,3-b]pyridine-3-carbonyl)-2,4-difluoro-phenyl]-amide]
not listed: Kdr
≤ 10 µM: all other assays above

CCC(C)S(=O)(=O)Nc1ccc(F)c(C(=O)c2c[nH]c3nccc(Cl)c23)c1F (stereo not drawn) [P-2319, Butane-2-sulfonic acid [3-(4-chloro-1H-pyrrolo[2,3-b]pyridine-3-carbonyl)-2,4-difluoro-phenyl]-amide]
not listed: B-Raf
≤ 10 µM: all other assays above

CCC(C)S(=O)(=O)Nc1ccc(F)c(C(=O)c2c[nH]c3nccc(C#N)c23)c1F (stereo not drawn) [P-2321, Butane-2-sulfonic acid [3-(4-cyano-1H-pyrrolo[2,3-b]pyridine-3-carbonyl)-2,4-difluoro-phenyl]-amide]
not listed: Kit
≤ 10 µM: all other assays above

N#Cc1ccnc2[nH]cc(C(=O)c3c(F)ccc(NS(=O)(=O)CC(F)(F)F)c3F)c12 [P-2341, 2,2,2-Trifluoro-ethanesulfonic acid [3-(4-cyano-1H-pyrrolo[2,3-b]pyridine-3-carbonyl)-2,4-difluoro-phenyl]-amide]
not listed: Kdr
≤ 10 µM: all other assays above

COc1ccnc2[nH]cc(C(=O)c3c(F)ccc(NS(=O)(=O)C4CCC4)c3F)c12 [P-2364, Cyclobutanesulfonic acid [2,4-difluoro-3-(4-methoxy-1H-pyrrolo[2,3-b]pyridine-3-carbonyl)-phenyl]-amide]
not listed: Kit
≤ 10 µM: all other assays above

Cc1cnc2[nH]cc(C(=O)c3c(F)ccc(NS(=O)(=O)C4CCCC4)c3F)c2c1 [P-2365, Cyclopentanesulfonic acid [2,4-difluoro-3-(5-methyl-1H-pyrrolo[2,3-b]pyridine-3-carbonyl)-phenyl]-amide]
not listed: B-Raf
≤ 10 µM: all other assays above

N#Cc1ccnc2[nH]cc(C(=O)c3c(F)ccc(NS(=O)(=O)C4CCCCC4)c3F)c12 [P-2369, Cyclohexanesulfonic acid [3-(4-cyano-1H-pyrrolo[2,3-b]pyridine-3-carbonyl)-2,4-difluoro-phenyl]-amide]
not listed: Kdr
≤ 10 µM: all other assays above

CCN(CC)S(=O)(=O)Nc1ccc(F)c(C(=O)c2c[nH]c3ncc(Cl)cc23)c1F [P-2384, N,N-diethylamino-sulfonic acid [3-(5-chloro-1H-pyrrolo[2,3-b]pyridine-3-carbonyl)-2,4-difluoro-phenyl]-amide]
not listed: B-Raf | C-Raf
≤ 10 µM: all other assays above

CCN(CC)S(=O)(=O)Nc1ccc(F)c(C(=O)c2c[nH]c3ncc(OC)cc23)c1F [P-2389, N,N-diethylamino-sulfonic acid [2,4-difluoro-3-(5-methoxy-1H-pyrrolo[2,3-b]pyridine-3-carbonyl)-phenyl]-amide]
not listed: B-Raf | C-Raf
≤ 10 µM: all other assays above

COc1cnc2[nH]cc(C(=O)c3c(F)ccc(NS(=O)(=O)N4CCOCC4)c3F)c2c1 [P-2391, Morpholine-4-sulfonic acid [2,4-difluoro-3-(5-methoxy-1H-pyrrolo[2,3-b]pyridine-3-carbonyl)-phenyl]-amide]
not listed: B-Raf | Kdr
≤ 10 µM: all other assays above

Cc1cnc2[nH]cc(C(=O)c3c(F)ccc(NS(=O)(=O)N4CCOCC4)c3F)c2c1 [P-2392, Morpholine-4-sulfonic acid [2,4-difluoro-3-(5-methyl-1H-pyrrolo[2,3-b]pyridine-3-carbonyl)-phenyl]-amide]
not listed: B-Raf | Kdr
≤ 10 µM: all other assays above

N#Cc1cnc2[nH]cc(C(=O)c3c(F)ccc(NS(=O)(=O)N4CCOCC4)c3F)c2c1 [P-2393, Morpholine-4-sulfonic acid [3-(5-cyano-1H-pyrrolo[2,3-b]pyridine-3-carbonyl)-2,4-difluoro-phenyl]-amide]
not listed: Kdr
≤ 10 µM: all other assays above

COc1ccnc2[nH]cc(C(=O)c3c(F)ccc(NS(=O)(=O)N4CCOCC4)c3F)c12 [P-2396, Morpholine-4-sulfonic acid [2,4-difluoro-3-(4-methoxy-1H-pyrrolo[2,3-b]pyridine-3-carbonyl)-phenyl]-amide]
not listed: Kit | Kdr
≤ 10 µM: all other assays above

O=C(c1c(F)ccc(NS(=O)(=O)N2CCOCC2)c1F)c1c[nH]c2nccc(Cl)c12 [P-2397, Morpholine-4-sulfonic acid [3-(4-chloro-1H-pyrrolo[2,3-b]pyridine-3-carbonyl)-2,4-difluoro-phenyl]-amide]
not listed: Kit | Kdr
≤ 10 µM: all other assays above
